Each structure is given as a SMILES string. Activity calls are given as the source filed them.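 How the source made its calls: active means curve reaches 40% rise within the top valid dose, in every run; inconclusive means runs give conflicting calls; inactive means opposite-direction activity, or every run inactive.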

One test in a line: statin-free myotube ATP level counter-assay – cell-based, no simvastatin, luminescence, dry powder, counter-screen for statin myotoxicity suppressor project, dose response (AID 743334). To be noted: C2C12 myotubes ATP, CellTiter-Glo luminescence, 48 h; at 18 µM (top of the series).
For `C[C@H](CO)N1C[C@H](C)[C@H](CN(C)Cc2ccc3c(c2)OCO3)Oc2ccc(NC(=O)CCCCCC(=O)Nc3ccccc3N)cc2CC1=O`, the ATP level change, positive = increase was 12% (inactive).

The same test, now with this note: C2C12 myotubes ATP, CellTiter-Glo luminescence, 48 h; at 19.5 µM (top of the series).
Take `C[C@H]1CN([C@@H](C)CO)S(=O)(=O)c2ccc(C#Cc3ccc(F)cc3)cc2O[C@@H]1CN(C)S(=O)(=O)c1cn(C)cn1`: the ATP level change, positive = increase is 6.04% (inactive). In the case of `Cc1ccc(S(=O)(=O)Nc2ccc3c(c2)CC(=O)N([C@@H](C)CO)C[C@@H](C)[C@H](CN(C)Cc2ccc(-c4ccccc4)cc2)O3)cc1`, the ATP level change, positive = increase is -0.559% (inactive). As to `COc1ccc(S(=O)(=O)Nc2cccc3c2O[C@H](CN(C)C(=O)Nc2ccc(F)cc2)[C@H](C)CN([C@@H](C)CO)C3=O)cc1`, the ATP level change, positive = increase is 14.4% (inactive). For `C[C@@H]1CN([C@@H](C)CO)C(=O)c2cc(NS(=O)(=O)c3ccc(Cl)cc3)ccc2O[C@H]1CN(C)C(=O)Nc1cccc2ccccc12`, the ATP level change, positive = increase was 6.56% (inactive). On to `COc1ccc(S(=O)(=O)N(C)C[C@H]2Oc3c(NC(=O)Nc4ccccc4)cccc3C(=O)N([C@H](C)CO)C[C@H]2C)cc1`, for which the ATP level change, positive = increase was 7.7% (inactive). As for `C[C@@H]1CN([C@H](C)CO)C(=O)Cc2cc(NS(=O)(=O)c3ccc(Cl)cc3)ccc2O[C@H]1CN(C)Cc1ccccc1`, the ATP level change, positive = increase is 13% (inactive). Same read-out and setting: in the case of `C[C@@H]1CN([C@H](C)CO)C(=O)Cc2cc(NS(=O)(=O)c3cn(C)cn3)ccc2O[C@@H]1CN(C)Cc1ccc(Cl)c(Cl)c1` it was 9.79% (inactive); in that of `Cc1ccc(S(=O)(=O)N(C)C[C@@H]2Oc3ccc(NS(=O)(=O)c4ccc(Cl)cc4)cc3C(=O)N([C@H](C)CO)C[C@@H]2C)cc1`, -0.772% (inactive); in that of `C[C@H](CO)N1C[C@H](C)[C@@H](CN(C)Cc2ccc(Oc3ccccc3)cc2)Oc2c(NC(=O)Nc3cccc4ccccc34)cccc2C1=O`, 8.68% (inactive). On to `C[C@@H]1CN([C@@H](C)CO)C(=O)c2cccc(NC(=O)Nc3ccc4c(c3)OCO4)c2O[C@H]1CN(C)Cc1ccc(C(=O)Nc2ccccc2N)cc1`, for which the ATP level change, positive = increase is 16.4% (inactive). Same read-out and setting: with `C[C@@H]1CN([C@H](C)CO)C(=O)Cc2cc(NC(=O)C3CCCCC3)ccc2O[C@H]1CN(C)Cc1ccc(Cl)c(Cl)c1` the figure was 15.1% (inactive); with `Cc1noc(C)c1S(=O)(=O)Nc1ccc2c(c1)CC(=O)N([C@H](C)CO)C[C@H](C)[C@@H](CN(C)Cc1ccc(C(F)(F)F)cc1)O2`, 10.6% (inactive).

Staying with this test, now noted: C2C12 myotubes ATP, CellTiter-Glo luminescence, 48 h; at 21 µM (top of the series).
Take `C[C@H]1CN([C@@H](C)CO)C(=O)Cc2cc(NC(=O)CCCCCC(=O)Nc3ccccc3N)ccc2O[C@H]1CN(C)Cc1ccc(C(F)(F)F)cc1`: the ATP level change, positive = increase was 5.44% (inactive). The same measure, in the same setting: with `Cc1noc(C)c1S(=O)(=O)Nc1ccc2c(c1)CC(=O)N([C@H](C)CO)C[C@@H](C)[C@@H](CN(C)Cc1ccc(-c3ccccc3)cc1)O2` the figure was 10.4% (inactive).

The same test, now with this note: C2C12 myotubes ATP, CellTiter-Glo luminescence, 48 h; hits give high values.
As to `C[C@@H]1CN([C@@H](C)CO)C(=O)c2cc(NC(=O)Cc3cn(C)c4ccccc34)ccc2O[C@H]1CN(C)Cc1ccc(C(=O)Nc2ccccc2N)cc1`, the max activity is -0.192% (inactive). With `N#C[C@@H]1[C@@H](c2ccc(-c3cccc(F)c3)cc2)[C@H](CO)N1C(=O)c1cccnc1`, the max activity was 6.17% (inactive). For the compound `N#C[C@H]1[C@@H](c2ccc(-c3cccc(F)c3)cc2)[C@H](CO)N1C(=O)NC1CCCC1`, the max activity is 9.12% (inactive). In the case of `CC(C)=CCC/C(C)=C/CC/C(C)=C/CC/C(C)=C/CO`, the max activity was 1.13% (inactive). For `COc1ccc(-c2ccc([C@@H]3[C@@H](C#N)N(C(=O)NC4CCCC4)[C@H]3CO)cc2)cc1`, the max activity was 5.47% (inactive). In the case of `N#C[C@@H]1[C@@H](c2ccc(C#CC3CCCC3)cc2)[C@H](CO)N1S(=O)(=O)c1ccccc1`, the max activity is -8.85% (inactive). Still for that read-out and setting: with `O=C(C[C@H]1CC[C@@H]2[C@H](COC[C@@H](O)CN2Cc2ccc(Oc3ccccc3)cc2)O1)N1CCCCC1` the figure was 14% (inactive); with `C[C@H](CO)N1C[C@H](C)[C@H](CN(C)Cc2ccc(C(=O)Nc3ccccc3N)cc2)Oc2ccc(NC(=O)Nc3cccc4ccccc34)cc2CC1=O`, -21.1% (inactive); with `N#C[C@@H]1[C@@H](c2ccccc2-c2ccc(F)cc2)[C@H](CO)N1C(=O)NC1CCCC1`, -6.02% (inactive). With `C[C@@H]1CN([C@H](C)CO)C(=O)c2cc(NC(=O)Nc3cccc4ccccc34)ccc2O[C@@H]1CN(C)Cc1ccc(C(=O)Nc2ccccc2N)cc1`, the max activity is 13.3% (inactive). Still for that read-out and setting: with `N#C[C@H]1[C@@H](c2ccc(-c3cccc(F)c3)cc2)[C@@H](CO)N1C(=O)NC1CCCC1` the figure was -0.663% (inactive); with `COCC(=O)N1[C@H](C#N)[C@@H](c2ccc(-c3cccc(F)c3)cc2)[C@@H]1CO`, 6.18% (inactive). Still for that read-out and setting: in the case of `N#C[C@@H]1[C@@H](c2ccc(-c3cccc(F)c3)cc2)[C@@H](CO)N1C(=O)NC1CCCC1` it was 2.16% (inactive).

With `CCCC#Cc1ccc([C@H]2[C@@H](C#N)N(S(=O)(=O)c3cccc(F)c3)[C@H]2CO)cc1`, the max activity is 3.4% (inactive). Same read-out and setting: in the case of `COc1ccc(C#Cc2cnc3c(c2)C(=O)N([C@H](C)CO)C[C@H](C)[C@@H](CN(C)C(=O)Nc2cccc(OC)c2)O3)cc1` it was 8% (inactive); in that of `CN(C)C(=O)c1cccc(-c2ccc([C@@H]3[C@@H](C#N)N(C(=O)C4CCCC4)[C@@H]3CO)cc2)c1`, -5.88% (inactive); in that of `C[C@@H]1CN([C@@H](C)CO)C(=O)Cc2cc(NC(=O)CCCCCC(=O)Nc3ccccc3N)ccc2O[C@@H]1CN(C)Cc1ccc(Oc2ccccc2)cc1`, -25.1% (inactive).

Turning to `C[C@H]1CN([C@@H](C)CO)C(=O)Cc2cc(NC(=O)Nc3cccc4ccccc34)ccc2O[C@H]1CN(C)Cc1ccc(C(=O)Nc2ccccc2N)cc1`, the max activity is 10.8% (inactive). The same measure, in the same setting: with `C[C@H](CO)N1C[C@H](C)[C@H](CN(C)Cc2ccc(C(=O)Nc3ccccc3N)cc2)Oc2ccc(NC(=O)Nc3ccc(F)cc3)cc2CC1=O` the figure was -33.9% (inactive); with `C[C@H](CO)N1C[C@H](C)[C@H](CN(C)Cc2ccc(Oc3ccccc3)cc2)Oc2ccc(NC(=O)CCCCCC(=O)Nc3ccccc3N)cc2CC1=O`, -48.9% (inactive). Same read-out and setting: with `C[C@H]1CN([C@@H](C)CO)C(=O)Cc2cc(NC(=O)CCCCCC(=O)Nc3ccccc3N)ccc2O[C@H]1CN(C)Cc1ccc(Oc2ccccc2)cc1` the figure was -10.2% (inactive). The same measure, in the same setting: with `C[C@H]1CN([C@@H](C)CO)C(=O)c2cc(NC(=O)Cc3cn(C)c4ccccc34)ccc2O[C@H]1CN(C)Cc1ccc(C(=O)Nc2ccccc2N)cc1` the figure was 5.76% (inactive).

Regarding `C[C@H](CO)N1C[C@H](C)[C@H](CN(C)Cc2ccc(C(=O)Nc3ccccc3N)cc2)Oc2ccc(NC(=O)Nc3cccc4ccccc34)cc2C1=O`, the max activity was -0.211% (inactive).

In the case of `CCCNC(=O)N1[C@@H](C#N)[C@@H](c2ccc(-c3ccccc3F)cc2)[C@@H]1CO`, the max activity was 6.49% (inactive). On the same count and under the same terms, in the case of `N#C[C@@H]1[C@@H](c2ccc(C3=CCCCC3)cc2)[C@H](CO)N1C(=O)NC1CCCC1` it was -9.58% (inactive); in that of `N#C[C@H]1[C@H](c2ccc(C#CCC3CCCC3)cc2)[C@@H](CO)N1C(=O)CN1CCOCC1`, -19% (inactive); in that of `CCCNC(=O)N1[C@H](CO)[C@H](c2ccccc2)[C@@H]1C#N`, -8.33% (inactive).

On to `CCCNC(=O)N1[C@H](C#N)[C@@H](c2ccc(C3=CCCCC3)cc2)[C@@H]1CO`, for which the max activity was -7.65% (inactive). Take `C[C@@H]1CN([C@H](C)CO)C(=O)c2cccc(NC(=O)c3nc4ccccc4s3)c2O[C@@H]1CN(C)Cc1ccc(C(=O)Nc2ccccc2N)cc1`: the max activity is -20.8% (inactive). On to `C[C@H]1CN([C@@H](C)CO)S(=O)(=O)c2ccc(C#CC3CC3)cc2O[C@H]1CN(C)C(=O)Nc1cc(F)ccc1F`, for which the max activity was -12.1% (inactive). Regarding `C[C@@H]1CN([C@H](C)CO)C(=O)Cc2cc(NC(=O)CCCCCC(=O)Nc3ccccc3N)ccc2O[C@@H]1CN(C)Cc1ccc(Oc2ccccc2)cc1`, the max activity is -23.3% (inactive). Still for that read-out and setting: in the case of `N#C[C@H]1[C@H](c2ccc(C#Cc3ccc(F)cc3)cc2)[C@H](CO)N1c1nc(-c2ccccc2)cs1` it was 9.97% (inactive); in that of `C[C@H](CO)N1C[C@H](C)[C@@H](CN(C)Cc2ccc(C(=O)Nc3ccccc3N)cc2)Oc2ccc(NC(=O)Cc3cn(C)c4ccccc34)cc2C1=O`, -9.11% (inactive); in that of `CCS(=O)(=O)N1[C@H](C#N)[C@@H](c2ccc(-c3cccc(F)c3)cc2)[C@@H]1CO`, -8.9% (inactive). The same measure, in the same setting: in the case of `C[C@H]1CN([C@@H](C)CO)C(=O)Cc2cc(NS(=O)(=O)c3ccc(Cl)cc3)ccc2O[C@@H]1CN(C)CC1CCCCC1` it was 4.91% (inactive); in that of `N#C[C@H]1[C@H](c2ccc(-c3cccc(F)c3)cc2)[C@H](CO)N1C(=O)NC1CCCC1`, -7.45% (inactive). On the same count and under the same terms, in the case of `N#C[C@@H]1[C@H](c2ccc(-c3cccc(F)c3)cc2)[C@@H](CO)N1C(=O)NC1CCCC1` it was -0.345% (inactive); in that of `O=C(C[C@H]1CC[C@@H]2[C@H](COC[C@H](O)CN2CCC(F)(F)F)O1)NCc1ccc(Oc2ccccc2)cc1`, 9.67% (inactive). Take `C[C@@H]1CN([C@H](C)CO)C(=O)Cc2cc(NC(=O)CCCCCC(=O)Nc3ccccc3N)ccc2O[C@H]1CN(C)Cc1ccc(Oc2ccccc2)cc1`: the max activity is -0.786% (inactive). `N#C[C@@H]1[C@@H](c2ccc(C#Cc3cccnc3)cc2)[C@@H](CO)N1C(=O)C1CCCC1`: the max activity was -10.7% (inactive). On the same count and under the same terms, with `N#C[C@@H]1[C@@H](c2ccccc2)[C@H](CO)N1S(=O)(=O)c1ccc(-c2ccccc2)cc1` the figure was -5.62% (inactive); with `N#C[C@H]1[C@H](c2ccc(-c3cccc(F)c3)cc2)[C@@H](CO)N1C(=O)NC1CCCC1`, 1.15% (inactive).

Values taken from PubChem BioAssay AID743334 (Broad Institute, 2014).
